# Laboratory results from patent US20040067241A1, “Comtrol a/k/a Virex antiviral composition” (priority 2002, published 2004).
# Details: 75 mg/kg/day i.n.
smiles,measurement,setting,value
NC(=O)c1ncn([C@@H]2O[C@H](CO)[C@@H](O)[C@H]2O)n1 [Ribavirin],Tox Controls Surv/Total,"bid x 5, uninfected mice",3/3
same,Tox Controls Mean Host Weight Change,initial weight vs weight 18 h after final treatment,-1.7 g
